According to US10730771B2, “Method for operating reverse-osmosis membrane treatment system” (priority 2015, dated 2020):

Test system: microorganisms adhered on the surfaces of test pieces
Assay: Test example I: adhesion of slime (microorganisms, as ATP) to SUS316L test pieces in flow columns
Assay type: cell-based
Conditions: 13 days; for Amount of microorganisms adhered: 1.7 L/min, no treatment 121
Description: A test for confirming the capabilities of a combined-chlorine slime-control agent and a stabilized-bromine slime-control agent to reduce the adhesion of slime to the energy recovery device was conducted.
Water produced by treating wastewater from Kurita Global Technology Center of Kurita Water Industries Ltd. was used as test water.
In the testing apparatus, the test water fed from a pipe 20 is split into pipes 21, 22, and 23 and passed through columns 31, 32, and 33 provided with test pieces 31a, 32a, and 33a (3 cm×5 cm test pieces made of SUS316L) fixed to the respective inner walls. FI1, FI2, and FI3 represent a flow meter. V1, V2, and V3 represent a valve.
The test water was passed into the columns 31 to 33 through the branch pipes 21 to 23 at a flow rate of 1.7 L/min for 13 days. While the test water was passed through the testing apparatus, the chemical-1 was injected into the pipe 22 such that the total chlorine concentration measured by the DPD method produced by HACH was 1.0 mg/L (Test No. 2), and the chemical-2 was injected into the pipe 23 such that the total chlorine concentration measured by the same method as in Test No. 2 was 0.8 mg/L (Test No. 3). No chemical (no treatment) was added to the pipe 21 (Test No. 1).
After the test water had been passed through the testing apparatus for 13 days, the test pieces 31a to 33a were removed, and the microorganisms adhered on the surfaces thereof were sampled. The amount of microorganisms adhered on the surface of each of the test pieces was measured with a “Lumitester C-110” produced by Kikkoman Biochemifa Company. The amount of microorganisms was measured as ATP and expressed in the unit of pg/cm^2.

Row | Molecule | adhesion of microorganisms compared with no treatment (0.8 mg/L as total chlorine) | Amount of microorganisms adhered (Test No. 3, 0.8 mg/L as total chlorine) [ATP pg/cm^2] | adhesion of microorganisms compared with no treatment (1.0 mg/L as total chlorine) | Amount of microorganisms adhered (Test No. 2, 1.0 mg/L as total chlorine) [ATP pg/cm^2]
1 | bromosulfamate [Chemical-2] | reduced the adhesion of microorganisms | 72 |  | 
2 | O=S(=O)([O-])NCl.[Na+] [NHClSO3Na, sodium monochlorosulfamate] |  |  | reduced the adhesion of microorganisms | 49
